For orientation: inhibition means how much of the control response was suppressed.

A value given as a limit tells only on which side of the number the result lay.

Assay [1] deals with primary human fibroblasts derived from IPF patients (LL29 cells) treated with TGF-β1. Put plainly: Inhibition of fibrotic process, αSMA staining in TGF-β1 treated LL29 fibroblasts. Particulars: Fibroblast; for EC50: 96 h, % αSMA positive LL29 cells, TGF-β1 20 ng/mL, 4 days; for inhibition at 10 µM: given where EC50 >10 μM, αSMA, LL29 cells, TGF-β1, read-out: percent inhibition at 10 μM. The class given is cell-based. The method, boiled down:
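LL29 IPF-patient lung fibroblasts in 1% FBS F12 were given compounds (11-point, 10 μM to […], 0.1% DMSO) plus TGF-β1 20 ng/mL for 4 days at 37 °C. αSMA-positive fraction of live (SYTOX-negative) cells was imaged and normalized to TGF-β1/DMSO wells. EC50 by non-linear regression, or % inhibition at 10 μM if >10 μM.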

For assay [2], the system named is primary human mesenchymal stem cells (hMSCs). Put plainly: Chondrogenesis induction in hMSCs (nodule count). It counts as cell-based. As to conditions: 144 h, hMSC chondrogenesis, 6 days; for EC50: concentration required to induce 50% of TGF-β3 level, read-out: Conc. (nM) of 50% TGF-β3 activity; for Emax: relative to TGF-β3 (10 ng/mL) positive control, read-out: Max. Activity as % TGF-β3 activity. The procedure:
Representative compounds were screened using primary human mesenchymal stem cells (hMSCs) to determine their ability to induce chondrogenesis (process by which cartilage is developed).
Primary human mesenchymal stem cells (hMSCs) were purchased from Lonza (Walkersville, Md.) and expanded in Mesenchymal Stem Cell Growth Media (Lonza). Cells between passage 3 and 6 were used for the experiments.
Each compound was dissolved in DMSO as a 10 mM stock and used to prepare compound source plates. Serial dilution (1:3, 6-point dose-response curves from 2700 nM to 10 nM) and compound transfer was performed using the ECHO 550 (Labcyte, Sunnyvale, Calif.) into 96-well clear bottom assay plates (Greiner Bio-One) with appropriate DMSO backfill for a final DMSO concentration of 0.03%. hMSCs were plated at 20,000 cells/well in 250 μL/well Incomplete Chondrogenic Induction Medium (Lonza; DMEM, dexamethasone, ascorbate, insulin-transferrin-selenium [ITS supplement], gentamycin-amphotericin [GA-1000], sodium pyruvate, proline and L-glutamine). TGF-β3 (10 ng/mL) was used as a positive control for differentiation while negative control wells were treated with 75 nL DMSO for normalization and calculating EC50 values. Cells were incubated at 37° C. and 5% CO2 for 6 days. To image chondrogenic nodules, the cells were fixed using 4% formaldehyde (Electron Microscopy Sciences), and stained with 2 μg/mL Rhodamine B (Sigma-Aldrich) and 20 μM Nile Red (Sigma-Aldrich) [Johnson K., et. al, A Stem Cell-Based Approach to Cartilage Repair, Science, (2012), 336(6082), 717-721]. The nodules imaged (4 images per well at 4× magnification) by excitation at 531 nm and emission at 625 nm and quantified using the CellInsight CX5 (Thermo Scientific). Number of nodules in each well was normalized to the average of 3 DMSO treated wells on the same plate using Excel (Microsoft Inc.). The normalized averages (fold change over DMSO) of 3 replicate wells for each compound concentration were calculated. Due to solubility limitations of some of the compounds, curve fitting was incomplete leading to inaccurate EC50 determinations.
Using TGF-β3 as a positive control, the concentration of representative compounds required to induce 50% levels of chondrogenesis is reported. In addition, the maximum activity of each compound and the respective dose that each compound reached maximum chondrogenesis activity is reported.

`CC(C)(C)C(=O)Nc1cncc(-c2cc3c(-c4cc5c(-c6cccc(F)c6)ccnc5[nH]4)n[nH]c3cn2)c1` [Compound 8, N-(5-(3-(4-(3-Fluorophenyl)-1H-pyrrolo[2,3-b]pyridin-2-yl)-1H-pyrazolo [3,4-c]pyridin-5-yl)pyridin-3-yl)pivalamide]: the EC50 in assay [1] was 33 nM; in assay [2], 10 nM. The Emax in assay [2] turned out to be 114%.

In assay [1], `Fc1cccc(-c2ccnc3[nH]c(-c4n[nH]c5cnc(-c6cncc(CN7CCCC7)c6)cc45)cc23)c1` [Compound 14, 3-(4-(3-Fluorophenyl)-1H-pyrrolo[2,3-b]pyridin-2-yl)-5-(5-(pyrrolidin-1-ylmethyl)pyridin-3-yl)-1H-pyrazolo[3,4-c]pyridine] returned an EC50 of 3530 nM. Further, in assay [2], the EC50 worked out at 100 nM and the Emax was determined as 68%.

In assay [1], `O=C(Nc1cncc(-c2cc3c(-c4cc5c(-c6cccc(F)c6)ccnc5[nH]4)n[nH]c3cn2)c1)C1CC1` [Compound 20, N-(5-(3-(4-(3-Fluorophenyl)-1H-pyrrolo[2,3-b]pyridin-2-yl)-1H-pyrazolo [3,4-c]pyridin-5-yl)pyridin-3-yl)cyclopropanecarboxamide] gave an EC50 of 19 nM. In addition, the Emax in assay [2] is 22%.

In turn, `Fc1cccc(-c2ccnc3[nH]c(-c4n[nH]c5cnc(-c6cncnc6)cc45)cc23)c1` [Compound 27, 3-(4-(3-Fluorophenyl)-1H-pyrrolo[2,3-b]pyridin-2-yl)-5-(pyrimidin-5-yl)-1H-pyrazolo[3,4-c]pyridine] yielded an EC50 in assay [1] of 2820 nM. The Emax in assay [2] was 41%.

As for `Nc1cncc(-c2cc3c(-c4cc5c(-c6ccccc6F)ccnc5[nH]4)n[nH]c3cn2)c1` [Compound 59, 5-(3-(4-(2-Fluorophenyl)-1H-pyrrolo[2,3-b]pyridin-2-yl)-1H-pyrazolo[3,4-c]pyridin-5-yl)pyridin-3-amine], in assay [1], the EC50 amounted to 386 nM. In addition, in assay [2], the Emax is 32%.

In the case of `CCNCc1cncc(-c2cc3c(-c4cc5c(-c6ccccc6F)ccnc5[nH]4)n[nH]c3cn2)c1` [Compound 62, N-((5-(3-(4-(2-Fluorophenyl)-1H-pyrrolo[2,3-b]pyridin-2-yl)-1H-pyrazolo [3,4-c]pyridin-5-yl)pyridin-3-yl)methyl)ethanamine], in assay [1], the EC50 was greater than 10000 nM and the inhibition at 10 µM was found to be 64.9%. For the same compound, in assay [2], the EC50 is 30 nM and the Emax is 270%.

In assay [1], `CCNCc1cncc(-c2cc3c(-c4cc5c(-c6cccnc6)ccnc5[nH]4)n[nH]c3cn2)c1` [Compound 90, N-((5-(3-(4-(Pyridin-3-yl)-1H-pyrrolo[2,3-b]pyridin-2-yl)-1H-pyrazolo[3,4-c]pyridin-5-yl)pyridin-3-yl)methyl)ethanamine] showed an EC50 of 1630 nM. Also, the Emax in assay [2] was 49%.

With `O=C(Nc1cncc(-c2cc3c(-c4cc5c(-c6cccnc6)ccnc5[nH]4)n[nH]c3cn2)c1)c1ccccc1` [Compound 95, N-(5-(3-(4-(Pyridin-3-yl)-1H-pyrrolo[2,3-b]pyridin-2-yl)-1H-pyrazolo[3,4-c]pyridin-5-yl)pyridin-3-yl)benzamide], in assay [1], the EC50 is greater than 10000 nM and the inhibition at 10 µM came out at 0.8%. Further, in assay [2], the EC50 was 10 nM and the Emax was found to be 64%.

On to `CC(C)Nc1cncc(-c2cc3c(-c4cc5c(-c6cccnc6)ccnc5[nH]4)n[nH]c3cn2)c1` [Compound 96, N-Isopropyl-5-(3-(4-(pyridin-3-yl)-1H-pyrrolo[2,3-b]pyridin-2-yl)-1H-pyrazolo[3,4-c]pyridin-5-yl)pyridin-3-amine], for which, in assay [1], the EC50 was greater than 10000 nM and the inhibition at 10 µM turned out to be 0%. Moreover, in assay [2], the EC50 was found to be 10 nM and the Emax was 77%.

For `c1cncc(-c2ccnc3[nH]c(-c4n[nH]c5cnc(-c6cncc(CN7CCCC7)c6)cc45)cc23)c1` [Compound 98, 3-(4-(Pyridin-3-yl)-1H-pyrrolo[2,3-b]pyridin-2-yl)-5-(5-(pyrrolidin-1-ylmethyl)pyridin-3-yl)-1H-pyrazolo[3,4-c]pyridine], the EC50 in assay [1] amounted to 8150 nM. Besides, the Emax in assay [2] worked out at 17%.

With `CCCCC(=O)Nc1cncc(-c2cc3c(-c4cc5c(-c6cccnc6)ccnc5[nH]4)n[nH]c3cn2)c1` [Compound 103, N-(5-(3-(4-(Pyridin-3-yl)-1H-pyrrolo[2,3-b]pyridin-2-yl)-1H-pyrazolo[3,4-c]pyridin-5-yl)pyridin-3-yl)pentanamide], in assay [1], the EC50 is greater than 10000 nM and the inhibition at 10 µM came out at 4.8%. Further, in assay [2], the EC50 worked out at 10 nM and the Emax amounted to 53%.

With `c1cncc(-c2ccnc3[nH]c(-c4n[nH]c5cnc(-c6cncnc6)cc45)cc23)c1` [Compound 111, 3-(4-(Pyridin-3-yl)-1H-pyrrolo[2,3-b]pyridin-2-yl)-5-(pyrimidin-5-yl)-1H-pyrazolo[3,4-c]pyridine], in assay [1], the EC50 was greater than 10000 nM and the inhibition at 10 µM came to 1.4%. In addition, the Emax in assay [2] worked out at 50%.

As to `CN(C)Cc1cncc(-c2cc3c(-c4cc5c(-c6ccncc6)ccnc5[nH]4)n[nH]c3cn2)c1` [Compound 125, N,N-Dimethyl-1-(5-(3-(4-(pyridin-4-yl)-1H-pyrrolo[2,3-b]pyridin-2-yl)-1H-pyrazolo[3,4-c]pyridin-5-yl)pyridin-3-yl)methanamine], the EC50 in assay [1] was 5020 nM. In assay [2], the Emax is 33%.

In assay [1], `Nc1cncc(-c2cc3c(-c4cc5c(-c6ccoc6)ccnc5[nH]4)n[nH]c3cn2)c1` [Compound 311, 5-(3-(4-(Furan-3-yl)-1H-pyrrolo[2,3-b]pyridin-2-yl)-1H-pyrazolo[3,4-c]pyridin-5-yl)pyridin-3-amine] returned an EC50 of 1030 nM.

With `CN(C)CCNc1cc(F)cc(-c2ccnc3[nH]c(-c4n[nH]c5cnc(-c6ccncc6)cc45)cc23)c1` [Compound 466, N^1-(3-Fluoro-5-(2-(5-(pyridin-4-yl)-1H-pyrazolo[3,4-c]pyridin-3-yl)-1H-pyrrolo[2,3-b]pyridin-4-yl)phenyl)-N^2,N^2-dimethylethane-1,2-diamine], the EC50 in assay [1] was 1740 nM.

As for `Fc1cccc(-c2ccnc3[nH]c(-c4n[nH]c5cnc(-c6cncc(OCc7ccccc7)c6)cc45)cc23)c1` [Compound 518, 5-(5-(Benzyloxy)pyridin-3-yl)-3-(4-(3-fluorophenyl)-1H-pyrrolo[2,3-b]pyridin-2-yl)-1H-pyrazolo[3,4-c]pyridine], in assay [1], the EC50 was greater than 10000 nM and the inhibition at 10 µM is 27.5%.

As to `Oc1cncc(-c2cc3c(-c4cc5c(-c6ccc(F)cc6)ccnc5[nH]4)n[nH]c3cn2)c1` [Compound 533, 5-(3-(4-(4-Fluorophenyl)-1H-pyrrolo[2,3-b]pyridin-2-yl)-1H-pyrazolo[3,4-c]pyridin-5-yl)pyridin-3-ol], in assay [1], the EC50 is 3540 nM.

The compound `CN(C)CCOc1cncc(-c2cc3c(-c4cc5c(-c6cccnc6)ccnc5[nH]4)n[nH]c3cn2)c1` [Compound 563, N,N-Dimethyl-2-((5-(3-(4-(pyridin-3-yl)-1H-pyrrolo[2,3-b]pyridin-2-yl)-1H-pyrazolo[3,4-c]pyridin-5-yl)pyridin-3-yl)oxy)ethan-1-amine] had an EC50 in assay [1] of 1110 nM.

Turning to `c1cc(N2CCCCC2)c2cc(-c3n[nH]c4cnc(C5CCNCC5)cc34)[nH]c2n1` [Compound 601, 3-(4-(Piperidin-1-yl)-1H-pyrrolo[2,3-b]pyridin-2-yl)-5-(piperidin-4-yl)-1H-pyrazolo[3,4-c]pyridine], in assay [1], the EC50 is greater than 10000 nM and the inhibition at 10 µM stood at 13%.

Regarding `Cn1cc(-c2cc3c(-c4cc5cccnc5[nH]4)n[nH]c3cn2)cn1` [Compound 652, 5-(1-Methyl-1H-pyrazol-4-yl)-3-(1H-pyrrolo[2,3-b]pyridin-2-yl)-1H-pyrazolo[3,4-c]pyridine], the EC50 in assay [1] was found to be 473 nM.

The compound `c1csc(-c2ccnc3[nH]c(-c4n[nH]c5cnc(-c6cncc(OC7CCCCC7)c6)cc45)cc23)c1` [Compound 703, 5-(5-(Cyclohexyloxy)pyridin-3-yl)-3-(4-(thiophen-2-yl)-1H-pyrrolo[2,3-b]pyridin-2-yl)-1H-pyrazolo[3,4-c]pyridine] came in with an EC50 in assay [1] of 1730 nM.

The record behind these values is patent US10285982B2, “3-(1H-pyrrolo[2,3-B]pyridin-2-yl)-1H-pyrazolo[3,4-C]pyridines and therapeutic uses thereof” (Samumed, LLC, priority 2015, dated 2019).
